Experimental findings from patent US10381110B2, “Molecules” (University of Dundee, priority 2010, dated 2019) are described below.

Like-named read-outs stand apart in the source and are kept apart here.

Assay [1] concerns the target 5-HT2B (Homo sapiens, UniProt P41595). The experiment in a line: Secondary radioligand binding assay (Ki).
Method: (§1) Assay Buffer: Standard Binding Buffer (50 mM Tris-HCl, 10 mM MgCl2, 1 mM EDTA, pH 7.4)
(§2) Membrane Fraction Source: Transiently or stably transfected cell lines (e.g., HEK293, COS, CHO, NIH3T3)
(§3) Radioligand is diluted to five times the assay concentration (see Table 18) in Standard Binding Buffer. Typically, the assay concentration of radioligand is a value between one half the KD and the KD of a particular radioligand at its target. 50 μl aliquots of radioligand are dispensed into the wells of a 96-well plate containing 100 μl of Standard Binding Buffer. Then, duplicate 50 μl aliquots of the test and reference compound dilutions are added.
(§4) The 250 μl reactions are incubated at room temperature and shielded from light (to prevent photolysis of light-sensitive ligands) for 1.5 hours, then harvested by rapid filtration onto Whatman GF/B glass fiber filters pre-soaked with 0.3% polyethyleneimine using a 96-well Brandel harverster. Four rapid 500 μl washes are performed with chilled Standard Binding Buffer to reduce non-specific binding. Filters are placed in 6 ml scintillation tubes and allowed to dry overnight. The next day, 4 ml of EcoScint scintillation cocktail (National Diagnostics) are added to each tube. The tubes are capped, labeled, and counted by liquid scintillation counting. […] The filter mats are dried, then scintillant is melted onto the filters and the radioactivity retained on the filters is counted in a Microbeta scintillation counter.
(§5) Raw data (dpm) representing total radioligand binding (i.e. specific+non-specific binding) are plotted as a function of the logarithm of the molar concentration of the competitor (i.e. test or reference compound).
Assay [2] deals with T1, α1A (Alpha1A) (Homo sapiens, UniProt P35348).
T1 sequence (P35348 1-466): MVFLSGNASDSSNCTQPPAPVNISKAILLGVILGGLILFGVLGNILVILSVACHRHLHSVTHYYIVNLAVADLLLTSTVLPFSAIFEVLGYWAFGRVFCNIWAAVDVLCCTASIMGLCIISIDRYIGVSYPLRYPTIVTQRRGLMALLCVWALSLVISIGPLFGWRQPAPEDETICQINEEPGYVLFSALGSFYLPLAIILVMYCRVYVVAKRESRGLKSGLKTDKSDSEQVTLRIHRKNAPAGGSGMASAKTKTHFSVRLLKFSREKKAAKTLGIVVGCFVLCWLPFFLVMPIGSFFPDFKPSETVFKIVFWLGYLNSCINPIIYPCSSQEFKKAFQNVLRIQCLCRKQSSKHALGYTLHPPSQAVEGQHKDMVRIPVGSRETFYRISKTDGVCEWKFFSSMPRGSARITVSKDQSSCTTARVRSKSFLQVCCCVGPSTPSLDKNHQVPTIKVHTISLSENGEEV
The experiment in a line: Secondary radioligand binding assay (Ki).
Method: as §3, §4, §5
Adrenergic Receptors: α1A, α1B, α2A, α2B, α2C, β1, β2, β3
(§6) Membrane Fraction Source: Transiently or stably transfected cell lines (e.g. HEK293, COS, CHO, NIH3T3)
The method is carried out in the manner described for the serotonin receptor assay above, except where described below. Eleven dilutions (5× assay concentration) of the test and reference (see Table 20) compounds are prepared in the appropriate buffer by serial dilution, as previously described. Radioligand is diluted to five times the assay concentration (see Table 21) in the appropriate buffer.
The 250 μl reactions are incubated at room temperature and shielded from light (to prevent photolysis of light-sensitive ligands) for 1 hour (for α1 receptors, 40 min for α2 receptors, and 1.5 hours for β receptors), then harvested by rapid filtration onto Whatman GF/B glass fiber filters pre-soaked with 0.3% polyethyleneimine using a 96-well Brandel harverster. Four rapid 500-μl washes are performed with chilled distilled water (for α1 and β receptors) or 0.1% polyethyleneimine (for α2 receptors) to reduce non-specific binding. Filters are placed in 6 ml scintillation tubes and allowed to dry overnight and the samples are treated to obtain data as described above.

The target in assay [3] is dopamine D1 (Homo sapiens, UniProt P21728). The experiment in a line: Primary radioligand binding assay (NIMH PDSP). The following applies: primary radiobinding assay, [3H]SCH233930.
For assay [4], the target named is T2, 5HT1a (Homo sapiens, UniProt P08908).
T2 sequence (P08908 1-422): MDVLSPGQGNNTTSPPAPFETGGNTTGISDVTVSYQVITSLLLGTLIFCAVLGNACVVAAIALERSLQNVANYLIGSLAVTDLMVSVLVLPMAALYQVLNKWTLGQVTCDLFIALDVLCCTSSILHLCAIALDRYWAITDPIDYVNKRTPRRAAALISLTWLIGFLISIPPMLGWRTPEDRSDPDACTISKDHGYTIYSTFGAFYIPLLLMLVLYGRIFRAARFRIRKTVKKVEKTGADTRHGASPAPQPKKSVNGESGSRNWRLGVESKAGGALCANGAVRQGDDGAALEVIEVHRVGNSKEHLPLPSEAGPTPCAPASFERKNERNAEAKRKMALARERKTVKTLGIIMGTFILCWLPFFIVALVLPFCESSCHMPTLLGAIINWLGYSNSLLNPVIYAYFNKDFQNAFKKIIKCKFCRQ
The experiment in a line: Secondary radioligand binding assay (Ki). The note with it: for α1/D2: Table 24: Selectivity of 5HT1A over average of α1 Receptors; for α1A/D2 / α1B/D2 / α1D/D2: Table 24: Selectivity of 5HT1A over α1 Receptors, ratio of Ki.
Method: as §1, §2, §3, §4, §5

The target of assay [5] is dopamine D2 (Homo sapiens, UniProt P14416). The experiment in a line: Primary radioligand binding assay (NIMH PDSP). The note with it: primary radiobinding assay, [3H]N-methylspiperone.
In assay [6] the target is T3, dopamine D4 (Homo sapiens, UniProt P21917).
T3 sequence (P21917 1-419): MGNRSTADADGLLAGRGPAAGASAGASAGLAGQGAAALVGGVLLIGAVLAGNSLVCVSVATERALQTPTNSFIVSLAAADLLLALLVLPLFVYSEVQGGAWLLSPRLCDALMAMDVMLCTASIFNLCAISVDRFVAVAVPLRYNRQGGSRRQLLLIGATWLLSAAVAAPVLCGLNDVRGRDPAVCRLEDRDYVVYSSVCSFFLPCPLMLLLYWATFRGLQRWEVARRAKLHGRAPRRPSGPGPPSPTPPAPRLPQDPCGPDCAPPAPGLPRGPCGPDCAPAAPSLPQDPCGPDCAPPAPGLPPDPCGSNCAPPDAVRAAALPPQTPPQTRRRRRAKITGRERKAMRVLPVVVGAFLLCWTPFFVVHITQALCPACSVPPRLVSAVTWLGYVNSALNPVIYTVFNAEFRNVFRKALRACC
The experiment in a line: Primary radioligand binding assay (NIMH PDSP). The note with it: primary radiobinding assay, N-methylspiperone.

Assay [7] has as its target T2, 5HT1a. In words: Primary radioligand binding assay (NIMH PDSP). The note with it: primary radiobinding assay, [3H]8-OH-DPAT.
Assay [8] concerns the target T4, Alpha1D (Homo sapiens, UniProt P25100).
T4 sequence (P25100 1-572): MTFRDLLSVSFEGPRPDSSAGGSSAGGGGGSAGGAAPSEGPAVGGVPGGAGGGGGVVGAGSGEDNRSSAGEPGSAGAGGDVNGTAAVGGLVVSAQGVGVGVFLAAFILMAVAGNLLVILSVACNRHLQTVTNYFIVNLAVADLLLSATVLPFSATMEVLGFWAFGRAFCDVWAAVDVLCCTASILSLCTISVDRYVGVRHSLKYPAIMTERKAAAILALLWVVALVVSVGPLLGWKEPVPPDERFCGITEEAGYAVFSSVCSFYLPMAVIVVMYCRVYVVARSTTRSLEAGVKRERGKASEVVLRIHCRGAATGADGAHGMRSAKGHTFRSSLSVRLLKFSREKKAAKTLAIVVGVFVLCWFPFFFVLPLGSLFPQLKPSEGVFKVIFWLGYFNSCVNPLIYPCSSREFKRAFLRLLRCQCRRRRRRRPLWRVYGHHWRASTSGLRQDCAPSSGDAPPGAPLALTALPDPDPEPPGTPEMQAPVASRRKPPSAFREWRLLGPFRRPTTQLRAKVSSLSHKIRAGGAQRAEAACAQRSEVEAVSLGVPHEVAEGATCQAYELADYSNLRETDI
The experiment in a line: Primary radioligand binding assay (NIMH PDSP). The note with it: primary radiobinding assay, [3H]Prazosin.

For assay [9], the target named is T5, dopamine D3 (Homo sapiens, UniProt P35462). In words: Secondary radioligand binding assay (Ki). The following applies: for α1/D2: Table 23: Selectivity of Dopamine D3 over average of α1 Receptors; for α1A/D2 / α1B/D2 / α1D/D2: Table 23: Selectivity of Dopamine D3 over α1 Receptors, ratio of Ki.
Method: as §3, §4, §5
Assay Buffers: Dopamine Binding Buffer (50 mM NaCl, 50 mM HEPES-HCl, 5 mM MgCl2, 0.5 mM EDTA, pH 7.4)
as §6
The method is carried out in the manner described for the serotonin receptor assay above. Eleven dilutions (5× assay concentration) of the test and reference (see Table 19) compounds are prepared in Dopamine Binding Buffer by serial dilution, as previously described. Radioligand is diluted to five times the assay concentration (see Table 20) in Dopamine Binding Buffer.
Assay [10] has as its target dopamine D5 (Homo sapiens, UniProt P21918). In words: Primary radioligand binding assay (NIMH PDSP). The note with it: primary radiobinding assay, [3H]SCH233930.
Assay [11] deals with T6, Alpha1A (Homo sapiens, UniProt P35348).
T6 sequence (P35348 1-466): T1 sequence (P35348 1-466)
In words: Primary radioligand binding assay (NIMH PDSP). The note with it: primary radiobinding assay, [3H]Prazosin.

For assay [12], the target named is T5, dopamine D3. In words: Primary radioligand binding assay (NIMH PDSP). The note with it: primary radiobinding assay, N-methylspiperone.
Where [13] appears, read: read-out: Experimental Receptor Binding Data-Ki ALPHA_1A, Table 25, GPCR panel.
[14] abbreviates: read-out: Experimental Receptor Binding Data-Ki D3, Table 25, GPCR panel.
For 5ht1a (% inh) in this document: test concentration or dose not given here.
For Alpha1A (% inh) in this document: test concentration or dose not given here.
For D1 (% inh) in this document: test concentration or dose not given here.
For D3 (% inh) in this document: test concentration or dose not given here.
For D4 (% inh) in this document: test concentration or dose not given here.
For D5 (% inh) in this document: test concentration or dose not given here.

T5 sequence (P35462 whole entry): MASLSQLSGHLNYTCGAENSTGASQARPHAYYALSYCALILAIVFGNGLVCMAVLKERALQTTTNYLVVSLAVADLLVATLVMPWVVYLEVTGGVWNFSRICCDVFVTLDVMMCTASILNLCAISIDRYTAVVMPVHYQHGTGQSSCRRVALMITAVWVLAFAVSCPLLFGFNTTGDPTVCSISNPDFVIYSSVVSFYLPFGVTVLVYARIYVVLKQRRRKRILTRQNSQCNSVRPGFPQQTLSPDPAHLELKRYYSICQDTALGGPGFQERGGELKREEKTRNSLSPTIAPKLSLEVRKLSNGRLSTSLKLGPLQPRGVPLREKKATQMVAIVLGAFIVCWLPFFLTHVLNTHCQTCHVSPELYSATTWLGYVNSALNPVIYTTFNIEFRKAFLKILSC
Sequence of dopamine D1 (P21728 whole entry): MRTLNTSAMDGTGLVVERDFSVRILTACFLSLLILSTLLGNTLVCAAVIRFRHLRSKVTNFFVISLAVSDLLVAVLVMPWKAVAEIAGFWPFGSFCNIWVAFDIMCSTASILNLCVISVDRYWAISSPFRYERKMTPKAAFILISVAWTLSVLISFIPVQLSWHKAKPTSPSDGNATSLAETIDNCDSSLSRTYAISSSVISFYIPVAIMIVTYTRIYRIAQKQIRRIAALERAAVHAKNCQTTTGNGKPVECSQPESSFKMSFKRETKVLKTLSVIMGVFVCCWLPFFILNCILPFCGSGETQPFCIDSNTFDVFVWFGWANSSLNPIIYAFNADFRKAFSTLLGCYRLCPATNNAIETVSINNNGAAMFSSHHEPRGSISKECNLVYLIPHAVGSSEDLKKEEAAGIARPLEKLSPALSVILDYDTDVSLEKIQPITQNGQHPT
Sequence of dopamine D2 (P14416 whole entry, species assumed): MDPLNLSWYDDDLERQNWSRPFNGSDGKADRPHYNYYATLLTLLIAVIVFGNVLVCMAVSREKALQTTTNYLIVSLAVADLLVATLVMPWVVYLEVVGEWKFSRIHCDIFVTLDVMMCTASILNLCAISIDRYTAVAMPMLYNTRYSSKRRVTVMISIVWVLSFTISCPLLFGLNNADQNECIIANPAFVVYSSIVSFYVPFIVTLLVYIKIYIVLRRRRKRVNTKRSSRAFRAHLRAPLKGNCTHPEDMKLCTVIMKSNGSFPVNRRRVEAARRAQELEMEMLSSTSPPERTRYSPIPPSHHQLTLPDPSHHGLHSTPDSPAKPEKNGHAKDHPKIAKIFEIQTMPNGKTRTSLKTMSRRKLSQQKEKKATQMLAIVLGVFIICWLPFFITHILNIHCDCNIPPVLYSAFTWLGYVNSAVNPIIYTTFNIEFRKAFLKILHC
Sequence of 5-HT2B (P41595 whole entry, species assumed): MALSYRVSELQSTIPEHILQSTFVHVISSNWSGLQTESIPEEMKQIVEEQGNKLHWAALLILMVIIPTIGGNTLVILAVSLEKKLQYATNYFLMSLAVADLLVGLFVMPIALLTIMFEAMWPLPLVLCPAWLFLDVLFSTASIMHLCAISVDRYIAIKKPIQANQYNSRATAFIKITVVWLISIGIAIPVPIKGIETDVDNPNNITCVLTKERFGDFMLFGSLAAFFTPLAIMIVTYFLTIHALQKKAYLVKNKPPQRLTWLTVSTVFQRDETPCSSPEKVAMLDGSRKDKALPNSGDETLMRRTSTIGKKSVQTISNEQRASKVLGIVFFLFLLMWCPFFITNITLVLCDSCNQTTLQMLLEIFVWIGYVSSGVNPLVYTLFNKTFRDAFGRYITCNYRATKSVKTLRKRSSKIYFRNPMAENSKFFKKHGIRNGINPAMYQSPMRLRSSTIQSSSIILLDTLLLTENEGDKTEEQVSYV
Sequence of dopamine D5 (P21918 whole entry): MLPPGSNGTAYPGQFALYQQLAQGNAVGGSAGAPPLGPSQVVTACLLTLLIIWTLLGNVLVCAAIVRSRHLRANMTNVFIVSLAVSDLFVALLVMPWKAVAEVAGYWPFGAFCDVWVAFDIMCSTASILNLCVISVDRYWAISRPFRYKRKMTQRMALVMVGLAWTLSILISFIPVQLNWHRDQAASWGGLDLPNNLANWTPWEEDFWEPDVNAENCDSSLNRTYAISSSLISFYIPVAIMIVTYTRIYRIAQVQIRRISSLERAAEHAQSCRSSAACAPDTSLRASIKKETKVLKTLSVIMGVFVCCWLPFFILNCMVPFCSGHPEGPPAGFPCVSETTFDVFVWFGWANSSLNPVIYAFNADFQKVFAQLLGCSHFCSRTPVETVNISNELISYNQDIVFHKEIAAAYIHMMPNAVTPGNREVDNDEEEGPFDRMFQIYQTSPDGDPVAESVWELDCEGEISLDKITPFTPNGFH

Regarding `COc1ccc2c(c1)CN(CCCN1CCN(c3ccccc3OC)CC1)C2=O` [GFR-VII-290], the Ki worked out at 117 nM in assay [1]; 59.9 nM in assay [2] (setting [13]); 59.9 nM in assay [2] (read-out: Kiα1A); 19 nM in assay [4] (read-out: Ki 5HT1A); 152 nM in [9] (setting [14]); 152 nM in assay [9] (read-out: KiD3). In addition, the “D1 (% inh)” value in assay [3] is listed as 54.5 % inh. For the same compound, the α1/D2 in assay [4] was 12.7; in [9], 1.6. The α1A/D2 was 3.2 in [4] and 0.4 in assay [9]. Also, the results for the α1B/D2 in assay [4] and in assay [9] were 32.0 and 4.0, respectively. Besides, the α1D/D2 in assay [4] is 2.9; in [9] it was 0.37. In addition, in assay [5], the “D2 (% inh)” value is given as 82.1 % inh. For the same compound, the “D4 (% inh)” value in [6] turned out to be 97.3 % inh. Besides, the “5ht1a (% inh)” value in assay [7] was found to be 98.3 % inh. The “Alpha1D (% inh)” value in assay [8] is 100.5 % inh. Also, in assay [10], the “D5 (% inh)” value was determined as 32.5 % inh. Further, the “Alpha1A (% inh)” value in [11] was determined as 99.1 % inh. Further, in assay [12], the “D3 (% inh)” value came out at 94.7 % inh.

Consider `COc1ccc2c(c1)C(=O)N(CCN1CCN(c3ccccc3OC)CC1)C2` [GFR-VII-280], for which the Ki is 160 nM in assay [1] (read-out: Experimental Receptor Binding Data-Ki 5HT2B, Table 25, GPCR panel); 15.9 nM in assay [2] (setting [13]); 15.9 nM in [2] (read-out: Kiα1A); 3.5 nM in assay [4] (read-out: Experimental Receptor Binding Data-Ki 5HT1A, Table 25, GPCR panel); 3.5 nM in [4] (read-out: Ki 5HT1A); 208 nM in assay [9] (setting [14]). Further, the Ki in assay [9] (read-out: KiD3) worked out at 208 nM. In addition, the “D1 (% inh)” value in [3] turned out to be 29.3 % inh. Moreover, the α1/D2 in assay [4] is 6.4. For the same compound, the α1A/D2 in assay [4] is listed as 4.5; in assay [9] it was 0.08. In addition, the values for the α1B/D2 in assay [4] and in [9] were 11.1 and 0.19, respectively. The α1D/D2 is 3.5 in assay [4] and 0.06 in assay [9]. Also, the “D2 (% inh)” value in assay [5] stood at 66.6 % inh. In addition, in [6], the “D4 (% inh)” value came to 97.2 % inh. For the same compound, the “5ht1a (% inh)” value in [7] came out at 92.4 % inh. In addition, the “Alpha1D (% inh)” value in assay [8] was 97.3 % inh. For the same compound, in [10], the “D5 (% inh)” value stood at 21.8 % inh. Also, the “Alpha1A (% inh)” value in assay [11] is on record as 101.2 % inh. Besides, the “D3 (% inh)” value in assay [12] came to 98.1 % inh.

`COc1cc2c(cc1OC)C(=O)N(CCCCN1CCN(c3ccccc3OC)CC1)C2` [GFR-VII-285]: the Ki came to 41 nM in [1]; 0.9 nM in [2] (setting [13]); 0.9 nM in assay [2] (read-out: Kiα1A); 23 nM in [4]; 11 nM in assay [9] (setting [14]); 11 nM in assay [9] (read-out: KiD3). For the same compound, the “D1 (% inh)” value in assay [3] stood at 91.3 % inh. Besides, the α1/D2 in assay [4] was 0.4; in [9], 0.75. Further, the α1A/D2 in [4] came to 0.04; in assay [9], 0.08. Moreover, the α1B/D2 in [4] is reported as 0.8; in assay [9] it was 1.8. For the same compound, the α1D/D2 in [4] was 0.2; in [9], 0.4. Also, the “D2 (% inh)” value in assay [5] is given as 96.2 % inh. For the same compound, the “D4 (% inh)” value in [6] is 91.6 % inh. The “5ht1a (% inh)” value in [7] stood at 93.3 % inh. The “Alpha1D (% inh)” value in [8] worked out at 96.8 % inh. The “D5 (% inh)” value in assay [10] is 75.1 % inh. In [11], the “Alpha1A (% inh)” value turned out to be 102.7 % inh. The “D3 (% inh)” value in assay [12] was determined as 100.5 % inh.

Consider `CC1Cc2ccccc2N1C(=O)CN1CCN(Cc2ccccc2)CC1` (stereo not drawn) [STT-00185638, 2-[-4-(benzyl)-piperazin-1-yl]-1-(2-methy-2,3-dihydro-indol-1-yl)-ethanone], for which the Ki came out at 879 nM in [1], 2060 nM in assay [2], 7080 nM in assay [4] and 3220 nM in assay [9]. Also, the “D1 (% inh)” value in assay [3] is listed as 50.8 % inh. Moreover, in assay [5], the “D2 (% inh)” value was determined as 66.2 % inh. In [6], the “D4 (% inh)” value was determined as 99.4 % inh. In addition, the “5ht1a (% inh)” value in [7] came out at 64.9 % inh. Further, in assay [8], the “Alpha1D (% inh)” value was found to be 42.8 % inh. In assay [10], the “D5 (% inh)” value is recorded as 9.7 % inh. In [11], the “Alpha1A (% inh)” value is reported as 69.1 % inh. For the same compound, the “D3 (% inh)” value in [12] is 63.6 % inh.

Compound `COc1ccc2c(c1)C(=O)N(CCCN1CCN(c3ccccc3OC)CC1)C2` [GFR-VII-273] gave a Ki in assay [1] of 19 nM. For the same compound, the Ki in assay [2] (setting [13]) is 64.9 nM. The Ki in assay [2] (read-out: Kiα1A) is 64.9 nM. For the same compound, the “D1 (% inh)” value in [3] turned out to be 49.5 % inh. Also, in [4], the Ki turned out to be 6.5 nM, the α1/D2 amounted to 24.0, the α1A/D2 was 10.0 and the α1B/D2 was determined as 49.7. The α1D/D2 in [4] amounted to 12.5. The “D2 (% inh)” value in [5] came out at 85 % inh. The “D4 (% inh)” value in assay [6] was 99.6 % inh. Moreover, the “5ht1a (% inh)” value in [7] is given as 92.5 % inh. In addition, the “Alpha1D (% inh)” value in assay [8] turned out to be 99.3 % inh. For the same compound, in assay [9], the Ki is 163 nM, the α1/D2 amounted to 1.0, the α1A/D2 came to 0.4 and the α1B/D2 stood at 1.98. In addition, the α1D/D2 in assay [9] came out at 0.5. For the same compound, the “D5 (% inh)” value in assay [10] was found to be 31.8 % inh. Further, the “Alpha1A (% inh)” value in [11] is on record as 102.2 % inh. For the same compound, the “D3 (% inh)” value in assay [12] amounted to 94.1 % inh.
